Molecular target: human recombinant renin (Homo sapiens (Human), UniProt P00797)
Experiment: human renin activity inhibition (SensoLyte 520 Renin Assay Kit Fluorimetric)
Assay type: biochemical
Conditions: 30 min preincubation at 37° C., fluorescence at 530 nm after 15 min at 37° C., read-out: IC50 (nM), inhibitory effect on human renin activity
Method: The exemplary compounds of the disclosure were tested for their inhibitory effects on human renin activity, using a commercially available renin assay kit (SensoLyte® 520 Renin Assay Kit Fluorimetric), following the manufacture's manual.
Briefly, human recombinant renin (from the kit) was incubated with the compound of the disclosure or buffer for 30 min at 37° C. before substrate addition. Fluorescence intensity was measured at 530 nm after an incubation of 15 min at 37° C. Data was analyzed by Prism and fitted into a sigmodal curve for IC50 calculation.

human recombinant renin, sequence (P00797 67-406): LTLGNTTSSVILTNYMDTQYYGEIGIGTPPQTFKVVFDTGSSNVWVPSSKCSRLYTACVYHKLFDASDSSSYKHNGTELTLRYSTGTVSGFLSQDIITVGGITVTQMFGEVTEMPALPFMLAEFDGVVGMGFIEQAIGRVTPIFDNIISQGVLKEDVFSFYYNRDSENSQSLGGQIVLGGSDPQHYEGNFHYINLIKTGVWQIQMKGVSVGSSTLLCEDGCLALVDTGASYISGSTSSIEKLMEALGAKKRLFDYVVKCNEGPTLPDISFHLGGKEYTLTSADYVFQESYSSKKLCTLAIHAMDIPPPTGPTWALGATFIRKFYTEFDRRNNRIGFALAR

Row | Compound | IC50
1 | CO[C@H]1C[C@H](Nc2cc(C3CC3)nnc2C(=O)N(CC(C)C)[C@@H]2CNC[C@H](C(=O)N3CCOC[C@@H]3C)C2)C1 [Compound 33, (3S)—{N-(2-methylpropyl), N-{6-cyclopropyl-4-[3-(trans-methoxy)cyclobutyl]amino}pyridazine-3-carbonyl}amino-(5R)-[(3S)-3-methylmorpholine-4-carbonyl]-piperidine] | < 250 nM
2 | CO[C@H]1C[C@H](Nc2cc(C3CC3)cnc2C(=O)N(CC(C)C)[C@@H]2CNC[C@H](CO)C2)C1 [Compound 35, (3S)—{N-(2-methylpropyl), N-{5-cyclopropyl-3-[3-(trans-methoxy)cyclobutyl]amino}pyridine-2-carbonyl}amino-(5R)-hydroxymethyl-piperidine] | < 20 nM
3 | CC(C)CN(C(=O)c1ncc(C2CC2)cc1NC1COC1)[C@H]1CCCNC1 [Compound 36, (3S)—{N-(2-methylpropyl), N-[5-cyclopropyl-3-(oxetan-3-yl)amino]pyridine-2-carbonyl}amino-piperidine] | < 50 nM
4 | CC(C)CN(C(=O)c1ncc(C2CC2)cc1NC1COC1)[C@@H]1CNC[C@H](c2ncon2)C1 [Compound 42, (3S)—{N-(2-methylpropyl), N-[5-cyclopropyl-3-(oxetan-3-yl)amino]pyridine-2-carbonyl}amino-(5R)-(1,2,4-oxadiazol-3-yl)-piperidine] | < 30 nM
5 | [2H]C([2H])([2H])O[C@H]1C[C@H](Nc2cc(C3CC3)cnc2C(=O)N(CC(C)C)[C@@H]2CNC[C@H](c3nnco3)C2)C1 [Compound 45, (3S)—{N-(2-methylpropyl), N-{5-cyclopropyl-3-[3-(trans-methoxy-d3)cyclobutyl]amino}pyridine-2-carbonyl}amino-(5R)-(1,3,4-oxadiazol-2-yl)-piperidine] | < 10 nM
6 | CO[C@H]1C[C@H](Nc2nc(C3CC3)ncc2C(=O)N(CC(C)C)[C@@H]2CNC[C@H](C(=O)N3CCOC[C@@H]3C)C2)C1 [Compound 46, (3S)—{N-(2-methylpropyl), N-{2-cyclopropyl-3-[3-(trans-methoxy)cyclobutyl]amino}pyrimidine-5-carbonyl}amino-(5R)-[(3S)-methylmorpholine-N-carbonyl]-piperidine] | < 250 nM

Second part, the molecule after the results:

Row | IC50 | Compound
7 | < 10 nM | CO[C@H]1C[C@H](Nc2cc(C3CC3)cnc2C(=O)N(CC(C)C)[C@@H]2CNC[C@H](c3ncon3)C2)C1 [Compound 39, (3S)—{N-(2-methylpropyl), N-{5-cyclopropyl-3-[3-(trans-methoxy)cyclobutyl]amino}pyridine-2-carbonyl}amino-(5R)-(1,2,4-oxadiazol-3-yl)-piperidine]
8 | < 10 nM | CO[C@H]1C[C@H](Nc2cc(C3CC3)cnc2C(=O)N(CC(C)C)[C@@H]2CNC[C@H](c3nnco3)C2)C1 [Compound 40, (3S)—{N-(2-methylpropyl), N-{5-cyclopropyl-3-[3-(trans-methoxy)cyclobutyl]amino}pyridine-2-carbonyl}amino-(5R)-(1,3,4-oxadiazol-2-yl)-piperidine]
9 | < 10 nM | CO[C@H]1C[C@H](Nc2cc(C3CC3)cnc2C(=O)N(CC2CC2)[C@@H]2CNC[C@H](c3nnc(C)o3)C2)C1 [Compound 41]
10 | < 10 nM | CC(C)CN(C(=O)c1ncc(C(F)(F)F)cc1NC1COC1)[C@@H]1CNC[C@H](C(=O)N2CCOCC2)C1 [Compound 43, (3S)—{N-(2-methylpropyl), N-[5-trifluoromethyl-3-(oxetan-3-yl)amino]pyridine-2-carbonyl}amino-(5R)-(morpholine-N-carbonyl)-piperidine]

Reference: patent publication US20240327385A1, “SUBSTITUTED PIPERIDINE COMPOUNDS AS RENIN INHIBITORS” (priority 2023, published 2024)
